This note sets out measurements from ChEMBL document CHEMBL4732134, “Identification of N-phenyl-3-methoxy-4-pyridinones as orally bioavailable H receptor antagonists and β-amyloid aggregation inhibitors for the treatment of Alzheimer's disease” (Eur J Med Chem, 2021).

Molecules are shown by their SMILES. pIC50: −log10 of the molar value.

The target of one data set is Histamine H1 receptor (Homo sapiens, UniProt P35367). Nature of the data set: Antagonist activity at human histamine H1 receptor expressed in HEK293 cells preincubated for 5 mins followed by forskolin-stimulation and measured after 5 hrs by CRE-driven luciferase reporter gene assay. The format is functional, cell-based.
For a further data set, the target named is Histamine H2 receptor (Homo sapiens, UniProt P25021). The data set can be described thus: Antagonist activity at human histamine H2 receptor expressed in HEK293 cells preincubated for 5 mins followed by forskolin-stimulation and measured after 5 hrs by CRE-driven luciferase reporter gene assay. The data set is classed as functional, cell-based. For orientation: Reporter assays use an easily measured gene product as a stand-in for the process of interest.

The next data set addresses Histamine H4 receptor (Homo sapiens, UniProt Q9H3N8). The data set can be described thus: Antagonist activity at human histamine H4 receptor expressed in HEK293 cells preincubated for 5 mins followed by forskolin-stimulation and measured after 5 hrs by CRE-driven luciferase reporter gene assay. The data set is classed as functional, cell-based.
A further data set deals with hERG (KCNH2) (Homo sapiens, UniProt Q12809). The data set can be described thus: Inhibition of human ERG at 3 uM by patch clamp method relative to control. On the technique in general: Patch clamp records ionic current or voltage across a cell membrane.
hERG (KCNH2), sequence (Q12809 whole entry): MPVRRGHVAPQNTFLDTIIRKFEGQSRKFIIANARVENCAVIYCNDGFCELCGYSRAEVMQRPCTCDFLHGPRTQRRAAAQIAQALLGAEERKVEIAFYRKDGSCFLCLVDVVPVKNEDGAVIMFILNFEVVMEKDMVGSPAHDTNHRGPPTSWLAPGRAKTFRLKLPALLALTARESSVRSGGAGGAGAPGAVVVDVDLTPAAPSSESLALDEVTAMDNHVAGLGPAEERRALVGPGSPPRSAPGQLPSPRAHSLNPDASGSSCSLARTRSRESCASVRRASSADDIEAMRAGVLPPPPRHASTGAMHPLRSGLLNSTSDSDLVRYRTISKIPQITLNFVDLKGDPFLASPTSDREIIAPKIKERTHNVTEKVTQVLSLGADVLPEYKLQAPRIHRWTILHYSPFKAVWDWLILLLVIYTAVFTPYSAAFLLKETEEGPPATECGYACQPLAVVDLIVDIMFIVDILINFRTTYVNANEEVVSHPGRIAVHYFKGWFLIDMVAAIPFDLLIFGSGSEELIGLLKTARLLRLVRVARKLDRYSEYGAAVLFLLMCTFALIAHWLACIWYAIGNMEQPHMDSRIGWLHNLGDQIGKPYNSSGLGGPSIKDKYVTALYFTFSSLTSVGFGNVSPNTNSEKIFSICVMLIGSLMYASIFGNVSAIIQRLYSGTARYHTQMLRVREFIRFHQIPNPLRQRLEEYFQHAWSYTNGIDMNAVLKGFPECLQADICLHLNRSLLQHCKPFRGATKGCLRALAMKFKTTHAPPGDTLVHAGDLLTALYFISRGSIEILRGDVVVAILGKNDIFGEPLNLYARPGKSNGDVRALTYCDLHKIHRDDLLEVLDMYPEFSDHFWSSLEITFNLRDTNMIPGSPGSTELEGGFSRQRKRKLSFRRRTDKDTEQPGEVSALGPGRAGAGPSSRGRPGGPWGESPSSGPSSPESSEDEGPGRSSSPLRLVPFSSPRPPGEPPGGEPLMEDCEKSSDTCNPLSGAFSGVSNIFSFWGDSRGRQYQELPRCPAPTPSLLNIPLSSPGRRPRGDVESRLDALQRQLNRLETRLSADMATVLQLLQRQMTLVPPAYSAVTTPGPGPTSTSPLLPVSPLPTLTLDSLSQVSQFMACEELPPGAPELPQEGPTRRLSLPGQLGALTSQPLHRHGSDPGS

Histamine H4 receptor, sequence (Q9H3N8 whole entry): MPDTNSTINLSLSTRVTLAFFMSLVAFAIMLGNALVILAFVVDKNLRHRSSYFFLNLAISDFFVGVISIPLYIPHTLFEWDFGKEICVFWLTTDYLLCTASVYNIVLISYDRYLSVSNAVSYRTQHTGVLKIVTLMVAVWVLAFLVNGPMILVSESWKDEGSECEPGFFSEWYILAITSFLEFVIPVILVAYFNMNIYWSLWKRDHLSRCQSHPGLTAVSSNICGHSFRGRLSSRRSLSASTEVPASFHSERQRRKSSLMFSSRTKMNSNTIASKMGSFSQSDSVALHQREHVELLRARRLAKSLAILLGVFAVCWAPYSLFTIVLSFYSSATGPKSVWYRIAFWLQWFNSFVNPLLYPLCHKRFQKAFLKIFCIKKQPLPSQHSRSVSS
Histamine H2 receptor, sequence (P25021 whole entry): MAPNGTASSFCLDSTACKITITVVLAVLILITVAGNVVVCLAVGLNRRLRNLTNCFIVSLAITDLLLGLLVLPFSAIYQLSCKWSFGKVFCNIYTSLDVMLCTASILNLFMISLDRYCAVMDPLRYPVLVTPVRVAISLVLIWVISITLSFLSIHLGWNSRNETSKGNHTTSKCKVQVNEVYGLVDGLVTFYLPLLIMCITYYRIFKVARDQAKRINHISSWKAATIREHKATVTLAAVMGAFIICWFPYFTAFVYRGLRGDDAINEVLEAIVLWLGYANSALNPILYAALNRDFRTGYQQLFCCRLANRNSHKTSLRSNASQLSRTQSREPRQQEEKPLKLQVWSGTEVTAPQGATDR
Histamine H1 receptor, sequence (P35367 whole entry): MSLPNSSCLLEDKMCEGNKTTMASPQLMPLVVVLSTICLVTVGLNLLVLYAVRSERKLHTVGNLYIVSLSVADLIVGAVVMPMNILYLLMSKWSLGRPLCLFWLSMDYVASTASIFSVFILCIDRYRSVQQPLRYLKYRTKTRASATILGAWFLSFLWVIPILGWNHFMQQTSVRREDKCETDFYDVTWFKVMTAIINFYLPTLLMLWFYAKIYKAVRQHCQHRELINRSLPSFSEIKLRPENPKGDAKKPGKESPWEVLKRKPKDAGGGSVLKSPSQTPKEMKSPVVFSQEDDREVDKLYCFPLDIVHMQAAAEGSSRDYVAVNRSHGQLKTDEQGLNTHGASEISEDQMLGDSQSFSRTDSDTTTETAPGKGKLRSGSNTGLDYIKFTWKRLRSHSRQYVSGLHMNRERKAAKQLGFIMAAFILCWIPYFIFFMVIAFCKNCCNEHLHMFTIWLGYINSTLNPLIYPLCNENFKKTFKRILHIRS

For orientation: pIC50 means the negative decadic logarithm of the IC50, by convention in mol/L. Higher therefore signals a low IC50. The term inhibition denotes the percentage by which the read-out fell short of the control. Lower therefore signals little suppression. Consider `COc1cn(-c2ccc(OCCCN3CCCC3)cc2)ccc1=O`, for which the negative-log IC50 (pIC50) against Histamine H1 receptor, against Histamine H2 receptor and on Histamine H4 receptor was < 5.00 each time. Further, the inhibition at 3 µM against hERG (KCNH2) turned out to be 6.3%.
